Measured values: patent US11578068B2, “Oxadiazole derivatives as Rho-Kinase Inhibitors” (Chiesi Farmaceutici S.p.A., priority 2017, dated 2023)

Assays:
ROCK1 = ROCK1 (Homo sapiens, UniProt Q13464); assay: In vitro Rho kinase inhibitory activity assay (ADP-Glo), Rho kinase 1; assay type: biochemical; conditions: Ki by Cheng-Prusoff from IC50; 10 μM ATP, 25° C., Myelin Basic Protein substrate; range of activity
Protocol: (§1) The effectiveness of compounds of the invention to inhibit Rho kinase activity can be determined in a 10 μl assay containing 40 mM Tris pH7.5, 20 mM MgCl2 0.1 mg/ml BSA, 50 μM DTT and 2.5 μM peptide substrate (Myelin Basic Protein) using an ADP-Glo kit (Promega). Compounds were dissolved in DMSO such that the final concentration of DMSO was 1% in the assay. All reactions/incubations are performed at 25° C. Compound (2 ul) and either Rho kinase 1 or 2 (4 μl) were mixed and incubated for 30 mins. Reactions were initiated by addition of ATP (4 μl) such that the final concentration of ATP in the assay was 10 μM. After a 1 hour incubation 10 μl of ADP-Glo Reagent was added and after a further 45 minute incubation 20 ul of Kinase Detection Buffer was added and the mixture incubated for a further 30 minutes. The luminescent signal was measured on a luminometer. […] Compounds were tested in dose-response format and the inhibition of kinase activity was calculated at each concentration of compound. To determine the IC50 (concentration of compound required to inhibit 50% of the enzyme activity) data were fit to a plot of % inhibition vs Log 10 compound concentration using a sigmoidal fit with a variable slope and fixing the maximum to 100% and the minimum to 0%. To determine the Ki values the Cheng-Prusoff equation was utilized (Ki=IC50/(1+[S]/Km)

ROCK2 = ROCK2 (Homo sapiens, UniProt O75116); assay: In vitro Rho kinase inhibitory activity assay (ADP-Glo), Rho kinase 2; assay type: biochemical; conditions: Ki by Cheng-Prusoff from IC50; 10 μM ATP, 25° C., Myelin Basic Protein substrate; range of activity
ROCK2, sequence (O75116 whole entry): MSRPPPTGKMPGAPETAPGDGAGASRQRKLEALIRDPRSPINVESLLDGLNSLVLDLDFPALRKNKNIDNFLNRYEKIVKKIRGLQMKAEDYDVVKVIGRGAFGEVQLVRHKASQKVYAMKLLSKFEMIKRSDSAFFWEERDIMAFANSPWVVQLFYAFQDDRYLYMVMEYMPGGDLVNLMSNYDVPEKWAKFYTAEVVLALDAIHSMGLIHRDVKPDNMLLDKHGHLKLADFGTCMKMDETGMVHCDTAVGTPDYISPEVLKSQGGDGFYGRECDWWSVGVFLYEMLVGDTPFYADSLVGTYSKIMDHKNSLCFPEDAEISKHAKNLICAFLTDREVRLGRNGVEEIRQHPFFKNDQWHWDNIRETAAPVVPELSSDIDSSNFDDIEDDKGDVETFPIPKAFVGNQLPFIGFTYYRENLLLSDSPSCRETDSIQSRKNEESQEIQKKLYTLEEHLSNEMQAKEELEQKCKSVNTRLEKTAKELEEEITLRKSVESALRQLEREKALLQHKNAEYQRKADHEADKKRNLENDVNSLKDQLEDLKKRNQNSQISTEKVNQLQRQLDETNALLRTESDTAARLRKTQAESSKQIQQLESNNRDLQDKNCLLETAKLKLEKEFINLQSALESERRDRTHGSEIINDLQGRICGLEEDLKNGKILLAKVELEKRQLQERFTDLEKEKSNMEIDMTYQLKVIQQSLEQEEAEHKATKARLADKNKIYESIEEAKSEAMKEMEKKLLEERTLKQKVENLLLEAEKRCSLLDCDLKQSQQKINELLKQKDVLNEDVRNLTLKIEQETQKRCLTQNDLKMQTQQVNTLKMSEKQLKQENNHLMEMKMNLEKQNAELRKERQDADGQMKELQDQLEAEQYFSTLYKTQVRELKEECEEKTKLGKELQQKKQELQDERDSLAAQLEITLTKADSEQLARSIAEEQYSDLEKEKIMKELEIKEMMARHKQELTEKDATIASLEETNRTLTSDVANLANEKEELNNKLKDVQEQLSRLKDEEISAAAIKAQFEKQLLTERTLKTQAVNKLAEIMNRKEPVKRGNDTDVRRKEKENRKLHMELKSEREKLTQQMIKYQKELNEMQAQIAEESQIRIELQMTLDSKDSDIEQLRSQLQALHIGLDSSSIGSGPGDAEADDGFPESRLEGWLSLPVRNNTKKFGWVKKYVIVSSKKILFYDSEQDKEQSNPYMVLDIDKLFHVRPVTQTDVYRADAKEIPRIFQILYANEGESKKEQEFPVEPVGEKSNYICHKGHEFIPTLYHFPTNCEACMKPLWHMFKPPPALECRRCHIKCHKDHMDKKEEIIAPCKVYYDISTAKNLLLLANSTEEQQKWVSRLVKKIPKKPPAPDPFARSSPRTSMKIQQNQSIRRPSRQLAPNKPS
Protocol: as §1

ROCK1, sequence (Q13464 whole entry): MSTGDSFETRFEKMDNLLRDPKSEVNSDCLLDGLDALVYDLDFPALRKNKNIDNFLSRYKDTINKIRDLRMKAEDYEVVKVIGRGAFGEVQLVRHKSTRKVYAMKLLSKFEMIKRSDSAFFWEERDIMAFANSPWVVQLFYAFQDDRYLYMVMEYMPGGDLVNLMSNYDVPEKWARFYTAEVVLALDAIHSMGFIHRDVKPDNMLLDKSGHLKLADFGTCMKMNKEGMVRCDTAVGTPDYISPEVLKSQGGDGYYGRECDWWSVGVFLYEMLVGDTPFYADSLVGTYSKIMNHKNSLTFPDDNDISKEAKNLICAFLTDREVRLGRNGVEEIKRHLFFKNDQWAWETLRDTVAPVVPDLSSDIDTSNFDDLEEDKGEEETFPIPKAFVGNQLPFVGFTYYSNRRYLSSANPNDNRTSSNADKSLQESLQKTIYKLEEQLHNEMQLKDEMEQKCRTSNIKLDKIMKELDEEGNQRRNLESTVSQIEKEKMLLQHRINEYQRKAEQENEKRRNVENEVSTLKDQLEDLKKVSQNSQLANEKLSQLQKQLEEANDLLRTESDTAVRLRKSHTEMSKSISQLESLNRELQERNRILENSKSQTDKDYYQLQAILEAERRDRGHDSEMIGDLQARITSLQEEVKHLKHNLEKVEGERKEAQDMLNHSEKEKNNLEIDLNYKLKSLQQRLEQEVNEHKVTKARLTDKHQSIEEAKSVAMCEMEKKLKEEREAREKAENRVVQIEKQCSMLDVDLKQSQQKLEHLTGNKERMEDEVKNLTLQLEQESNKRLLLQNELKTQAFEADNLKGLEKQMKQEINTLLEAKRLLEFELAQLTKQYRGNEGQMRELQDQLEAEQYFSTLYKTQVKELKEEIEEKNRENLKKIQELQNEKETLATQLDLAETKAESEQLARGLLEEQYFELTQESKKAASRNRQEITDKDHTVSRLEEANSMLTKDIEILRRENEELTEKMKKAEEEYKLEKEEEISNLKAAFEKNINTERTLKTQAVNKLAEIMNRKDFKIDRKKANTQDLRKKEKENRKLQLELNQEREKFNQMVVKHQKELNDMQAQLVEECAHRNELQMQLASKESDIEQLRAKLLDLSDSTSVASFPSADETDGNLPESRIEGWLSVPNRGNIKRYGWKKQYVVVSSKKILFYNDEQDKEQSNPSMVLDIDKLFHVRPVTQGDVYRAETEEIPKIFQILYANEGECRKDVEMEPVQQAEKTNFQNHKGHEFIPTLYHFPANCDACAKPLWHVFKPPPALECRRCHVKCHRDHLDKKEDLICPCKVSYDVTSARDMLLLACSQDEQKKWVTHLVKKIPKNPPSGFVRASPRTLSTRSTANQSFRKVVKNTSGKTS

Ki (ROCK1) | Ki (ROCK2) | SMILES
5 to 50 nM | 5 to 50 nM | Cc1c[nH]c2nccc(Oc3ccc(C[C@H](N)c4nc(-c5cccnc5)no4)cc3F)c12 [Example 5, (S)-2-(3-fluoro-4-((3-methyl-1H-pyrrolo[2,3-b]pyridin-4-yl)oxy)phenyl)-1-(3-(pyridin-3-yl)-1,2,4-oxadiazol-5-yl)ethanamine]
> 50 nM | > 50 nM | N[C@@H](Cc1ccc(Oc2ccnc3[nH]ccc23)cc1)c1nc(-c2ccccc2)no1 [Example 7, (S)-2-(4-((1H-pyrrolo[2,3-b]pyridin-4-yl)oxy)phenyl)-1-(3-phenyl-1,2,4-oxadiazol-5-yl)ethanamine]
5 to 50 nM | 5 to 50 nM | Cc1c[nH]c2nccc(Oc3ccc(C[C@H](N)c4nc(-c5ccccc5)no4)cc3F)c12 [Example 1, (S)-2-(3-fluoro-4((3-methyl-1H-pyrrolo[2,3-b]pyridin-4-yl)oxy)phenyl)-1-(3-phenyl-1,2,4-oxadiazol-5-yl)ethanamine]
5 to 50 nM | 5 to 50 nM | COCCc1noc([C@@H](N)Cc2ccc(Oc3ccnc4[nH]cc(C)c34)c(F)c2)n1 [Example 2, (S)-2-(3-fluoro-4-((3-methyl-1H-pyrrolo[2,3-b]pyridin-4-yl)oxy)phenyl)-1-(3-(2-methoxyethyl)-1,2,4-oxadiazol-5-yl)ethanamine]
5 to 50 nM | 5 to 50 nM | Cc1c[nH]c2nccc(Oc3ccc(C[C@H](N)c4nc(CCCN(C)C)no4)cc3F)c12 [Example 6, (S)-3-(5-(1-amino-2-(3-fluoro-4-((3-methyl-1H-pyrrolo[2,3-b]pyridin-4-yl)oxy)phenyl)ethyl)-1,2,4-oxadiazol-3-yl)-N,N-dimethylpropan-1-amine]
< 5 nM | < 5 nM | Cc1c[nH]c2nccc(Oc3ccc(CC(CN)c4nc(CCc5ccccc5)no4)cc3F)c12 (stereo not drawn) [Example 8, 3-(3-fluoro-4-((3-methyl-1H-pyrrolo[2,3-b]pyridin-4-yl)oxy)phenyl)-2-(3-phenethyl-1,2,4-oxadiazol-5-yl)propan-1-amine]
5 to 50 nM | 5 to 50 nM | Cc1noc([C@@H](N)Cc2ccc(Oc3ccnc4[nH]cc(C)c34)c(F)c2)n1 [Example 3, (S)-2-(3-fluoro-4-((3-methyl-1H-pyrrolo[2,3-b]pyridin-4-yl)oxy)phenyl)-1-(3-methyl-1,2,4-oxadiazol-5-yl)ethanamine]
< 5 nM | < 5 nM | Cc1c[nH]c2nccc(Oc3ccc(C[C@H](N)c4nnc(Cc5ccccc5)o4)cc3F)c12 [Example 9, (S)-1-(5-benzyl-1,3,4-oxadiazol-2-yl)-2-(3-fluoro-4-((3-methyl-1H-pyrrolo [2,3-b]pyridin-4-yl)oxy)phenyl)ethanamine]
< 5 nM | < 5 nM | Cc1c[nH]c2nccc(Oc3ccc(C[C@H](N)c4nc(CCc5ccccc5)no4)cc3F)c12 [Example 4, (S)-2-(3-fluoro-4-((3-methyl-1H-pyrrolo[2,3-b]pyridin-4-yl)oxy)phenyl)-1-(3-phenethyl-1,2,4-oxadiazol-5-yl)ethanamine]
